Settings: Liquid, Vibrating tube method

CCCCn1cc[n+](C)c1.CCCCn1cc[n+](C)c1.[Co+2].[N-]=C=S.[N-]=C=S.[N-]=C=S.[N-]=C=S [bis(1-butyl-3-methylimidazolium) tetrathiocyanatocobaltate]
mass density [kg/m3]
Settings | 283.16 K | 293.13 K | 303.17 K | 313.17 K | 323.18 K | 333.15 K | 343.14 K | 353.13 K | 363.14 K
100 kPa | 1233.1 | 1226.4 | 1219.6 | 1212.6 | 1205.8 | 1199 | 1192.4 | 1185.8 | 1179.2
1000 kPa | 1233.5 | 1226.9 | 1220.1 | 1213.2 | 1206.3 | 1199.5 | 1192.9 | 1186.3 | 1179.8
2000 kPa | 1233.9 | 1227.4 | 1220.5 | 1213.6 | 1206.8 | 1200.1 | 1193.5 | 1186.9 | 1180.3
5000 kPa | 1235.3 | 1228.9 | 1222.1 | 1215.2 | 1208.3 | 1201.8 | 1195.1 | 1188.6 | 1182
7000 kPa | 1236.2 | 1229.7 | 1222.9 | 1216.2 | 1209.4 | 1202.7 | 1196.2 | 1189.6 | 1183.2
10000 kPa | 1237.6 | 1231.1 | 1224.3 | 1217.7 | 1210.8 | 1204.2 | 1197.7 | 1191.2 | 1184.8
15000 kPa | 1239.8 | 1233.5 | 1226.8 | 1220.1 | 1213.3 | 1206.7 | 1200.4 | 1193.8 | 1187.5
20000 kPa | 1241.9 | 1235.6 | 1229.1 | 1222.5 | 1215.8 | 1209.2 | 1202.8 | 1196.5 | 1190
25000 kPa | 1244 | 1237.6 | 1231.3 | 1224.8 | 1218.1 | 1211.6 | 1205.1 | 1198.9 | 1192.6
30000 kPa | 1245.9 | 1239.7 | 1233.5 | 1226.9 | 1220.5 | 1213.9 | 1207.5 | 1201.3 | 1195
35000 kPa | 1248 | 1241.8 | 1235.6 | 1229.1 | 1222.8 | 1216.2 | 1209.8 | 1203.6 | 1197.4
40000 kPa | 1250.1 | 1243.8 | 1237.7 | 1231.3 | 1224.9 | 1218.3 | 1212.2 | 1205.9 | 1199.9
45000 kPa | 1251.9 | 1245.9 | 1239.7 | 1233.3 | 1227 | 1220.5 | 1214.4 | 1208.1 | 1202.2
50000 kPa | 1253.9 | 1248 | 1241.7 | 1235.3 | 1229.1 | 1222.8 | 1216.4 | 1210.5 | 1204.5
55000 kPa | 1255.8 | 1250 | 1243.6 | 1237.4 | 1231.1 | 1224.9 | 1218.6 | 1212.8 | 1206.7
60000 kPa | 1257.6 | 1251.9 | 1245.6 | 1239.4 | 1233.2 | 1227 | 1220.7 | 1215.1 | 1208.9
65000 kPa | 1259.4 | 1253.8 | 1247.5 | 1241.3 | 1235.1 | 1229.1 | 1222.9 | 1216.9 | 1211.2
70000 kPa | 1261.3 | 1255.5 | 1249.4 | 1243.4 | 1237.2 | 1231 | 1225 | 1219 | 1213.2
75000 kPa | 1263.2 | 1257.4 | 1251.3 | 1245.2 | 1239.2 | 1233 | 1227 | 1221.1 | 1215.3
80000 kPa | 1264.9 | 1259.1 | 1253.1 | 1247 | 1241 | 1235.1 | 1229.1 | 1223.1 | 1217.3
85000 kPa | 1266.6 | 1261 | 1254.8 | 1248.9 | 1242.9 | 1236.9 | 1231 | 1225.2 | 1219.3
90000 kPa | 1268.4 | 1262.6 | 1256.7 | 1250.6 | 1244.8 | 1238.9 | 1232.8 | 1227.1 | 1221.4
95000 kPa | 1270.1 | 1264.4 | 1258.5 | 1252.5 | 1246.5 | 1240.7 | 1234.8 | 1229.1 | 1223.3

CCn1cc[n+](C)c1.CCn1cc[n+](C)c1.[Co+2].[N-]=C=S.[N-]=C=S.[N-]=C=S.[N-]=C=S [bis(1-ethyl-3-methylimidazolium) tetrathiocyanatocobaltate]
mass density [kg/m3]
Settings | 283.1 K | 293.1 K | 303.1 K | 313.2 K | 323.2 K | 333.2 K | 343.1 K | 353.1 K | 363.1 K
100 kPa | 1286.1 | 1278.7 | 1271.5 | 1264.4 | 1257.3 | 1250.3 | 1243.3 | 1236.4 | 1229.5
1000 kPa | 1286.5 | 1279.1 | 1272 | 1264.9 | 1257.8 | 1250.7 | 1243.7 | 1236.9 | 1230.1
2000 kPa | 1287 | 1279.6 | 1272.5 | 1265.3 | 1258.4 | 1251.3 | 1244.3 | 1237.5 | 1230.6
5000 kPa | 1288.4 | 1281.1 | 1273.9 | 1266.8 | 1259.9 | 1253 | 1246 | 1239.2 | 1232.4
7000 kPa | 1289.3 | 1282.1 | 1274.9 | 1267.9 | 1260.9 | 1253.9 | 1247 | 1240.3 | 1233.5
10000 kPa | 1290.6 | 1283.4 | 1276.3 | 1269.4 | 1262.5 | 1255.3 | 1248.6 | 1241.7 | 1235.1
15000 kPa | 1292.8 | 1285.7 | 1278.6 | 1271.7 | 1265 | 1257.9 | 1251.3 | 1244.3 | 1237.7
20000 kPa | 1295 | 1287.9 | 1281 | 1274.1 | 1267.3 | 1260.1 | 1253.7 | 1246.9 | 1240.4
25000 kPa | 1297.1 | 1290 | 1283.1 | 1276.3 | 1269.6 | 1262.7 | 1256 | 1249.4 | 1243
30000 kPa | 1299.1 | 1292.1 | 1285.4 | 1278.7 | 1271.9 | 1265.1 | 1258.3 | 1251.9 | 1245.6
35000 kPa | 1301.1 | 1294.3 | 1287.6 | 1280.9 | 1274.1 | 1267.5 | 1260.6 | 1254.3 | 1248.2
40000 kPa | 1303.2 | 1296.3 | 1289.6 | 1282.9 | 1276.4 | 1269.5 | 1263 | 1256.7 | 1250.5
45000 kPa | 1305.2 | 1298.4 | 1291.7 | 1285.1 | 1278.6 | 1272 | 1265.5 | 1259.1 | 1252.7
50000 kPa | 1307.2 | 1300.5 | 1294 | 1287.4 | 1280.8 | 1274.2 | 1267.7 | 1261.2 | 1254.9
55000 kPa | 1309 | 1302.5 | 1295.9 | 1289.5 | 1282.9 | 1276.4 | 1269.6 | 1263.6 | 1257.2
60000 kPa | 1311 | 1304.3 | 1297.9 | 1291.4 | 1285 | 1278.4 | 1271.8 | 1265.7 | 1259.4
65000 kPa | 1312.9 | 1306.3 | 1299.7 | 1293.3 | 1287 | 1280.4 | 1274.1 | 1267.7 | 1261.6
70000 kPa | 1314.8 | 1308.3 | 1301.7 | 1295.3 | 1288.9 | 1282.4 | 1275.9 | 1269.9 | 1263.7
75000 kPa | 1316.6 | 1310.2 | 1303.7 | 1297.2 | 1290.9 | 1284.6 | 1277.9 | 1272 | 1265.8
80000 kPa | 1318.3 | 1312.2 | 1305.4 | 1299 | 1292.8 | 1286.5 | 1280.2 | 1274.2 | 1267.8
85000 kPa | 1320 | 1313.9 | 1307.4 | 1301.1 | 1294.7 | 1288.6 | 1282.4 | 1276.1 | 1270.1
90000 kPa | 1321.9 | 1315.6 | 1309.4 | 1302.9 | 1296.8 | 1290.4 | 1284.3 | 1278.2 | 1272.1
95000 kPa | 1323.8 | 1317.5 | 1311 | 1304.8 | 1298.7 | 1292.5 | 1286.1 | 1280.2 | 1273.8
